Measurements published in publication PMC11574108, “4-Furanylvinylquinoline derivative as a new scaffold for the design of oxidative stress initiator and glucose transporter inhibitor drugs” (Scientific Reports, 2024).

Columns and labels:
NHDF = assay: Monolayer MTS cytotoxicity against normal cells; assay type: cell-based; conditions: NHDF, normal human dermal fibroblasts, 72-h incubation
Description: The human colon carcinoma cell line HCT 116 with wild-type p53 (p53^+/+) and the human glioblastoma cell line U-251 were obtained from ATCC, while the HCT 116 with a p53 deletion (p53^−/−) was kindly provided by Prof. M. Rusin from the Maria Sklodowska-Curie Memorial Cancer Center and Institute of Oncology in Gliwice, Poland. The human chronic myelogenous leukaemia cell line K562 and the normal human cell dermal fibroblast cell line NHDF were purchased from Sigma-Aldrich and PromoCell, respectively. Both the HCT 116 and U-251 cell lines were cultured in Dulbecco’s modified Eagle’s medium (DMEM) supplemented with 10% inactivated foetal bovine serum (FBS). The DMEM for the NHDF contained 15% non-inactivated FBS. K562 cells were cultured in RPMI medium completed by 10% inactivated FBS. Additionally, the media were supplemented with antibiotics (streptomycin and penicillin – 1% v/v; Sigma-Aldrich). The cell culture was conducted in 75 cm^2 flasks (Nunc) under standard conditions (37 °C, 5% CO2 humidified atmosphere). Furthermore, the cell lines were frequently tested for mycoplasma using the qRT-PCR technique with specific Mycoplasma primers to confirm the lack of contamination.
The cells were seeded in 96-well plates (Nunc) with 5,000 or 4,000 cells per well for the cancer cells and NHDF, respectively, and incubated under standard conditions at 37 °C overnight. The culture media were then changed for freshly prepared solutions of the tested compounds in various concentrations. After 72-h incubation the antiproliferative assay was carried out as follows: the solutions of the compounds were changed in each well to 100 µL DMEM without phenol red and 20 µL of CellTiter 96 AQueous One Solution-MTS (Promega). The plates were incubated for 1 h at 37 °C, and the absorbance was then measured at 490 nm using a multi-plate reader (Synergy 4, BioTek). The experiment for each sample was repeated at least three times.
Additionally, the compounds were also tested for their cytotoxicity against normal cells – human dermal fibroblasts (NHDF).

Fas = assay: Western blot, Fas protein level; assay type: cell-based, human
Description: The cells (500,000) were seeded in 35 mm Petri dishes (Nunc) and incubated in a solution of the tested compound (0.5 µM and 1 µM) for 24 h and 48 h. The cells were then dissociated using trypsin, collected in Eppendorf tubes, and centrifuged at 2,000 rpm. Next, cell pellets were resuspended in complete RIPA buffer containing a Halt Protease Inhibitor Cocktail and Halt Phosphatase Inhibitor Cocktail along with 0.5 M EDTA (all reagents from Thermo Fisher Scientific) and lysed on ice for 20 min. Afterward, the lysates were sonicated and centrifuged at 10,000 rpm for 10 min at 4 °C. The obtained supernatants were collected for further analysis. The protein concentration was determined using a Micro BCA™ Protein Assay Kit (Thermo Fisher Scientific) according to the manufacturer’s procedure. Equal amounts of proteins (16 µg) were electrophoresed on SDS-Page gels and transferred onto nitrocellulose membranes. Novex Sharp Pre-Stained Protein Standard (Thermo Fisher Scientific) was used as a colored molecular weight marker. The membranes were blocked in 5% non-fat milk prepared in TPBS (PBS supplemented by 0.1% Tween-20) for 1 h. After blocking, the membranes were cut, and then incubated with specific primary monoclonal antibodies (all purchased from Cell Signaling) overnight at 4 °C. […]

GLUT-1 = assay: Western blot, GLUT-1 protein level; assay type: cell-based, human
Description: The cells (500,000) were seeded in 35 mm Petri dishes (Nunc) and incubated in a solution of the tested compound (0.5 µM and 1 µM) for 24 h and 48 h. The cells were then dissociated using trypsin, collected in Eppendorf tubes, and centrifuged at 2,000 rpm. Next, cell pellets were resuspended in complete RIPA buffer containing a Halt Protease Inhibitor Cocktail and Halt Phosphatase Inhibitor Cocktail along with 0.5 M EDTA (all reagents from Thermo Fisher Scientific) and lysed on ice for 20 min. Afterward, the lysates were sonicated and centrifuged at 10,000 rpm for 10 min at 4 °C. The obtained supernatants were collected for further analysis. The protein concentration was determined using a Micro BCA™ Protein Assay Kit (Thermo Fisher Scientific) according to the manufacturer’s procedure. Equal amounts of proteins (16 µg) were electrophoresed on SDS-Page gels and transferred onto nitrocellulose membranes. Novex Sharp Pre-Stained Protein Standard (Thermo Fisher Scientific) was used as a colored molecular weight marker. The membranes were blocked in 5% non-fat milk prepared in TPBS (PBS supplemented by 0.1% Tween-20) for 1 h. After blocking, the membranes were cut, and then incubated with specific primary monoclonal antibodies (all purchased from Cell Signaling) overnight at 4 °C. The antibodies for the target proteins (CDK1 Mouse mAb #9116, p53 Mouse mAb #2524, FAS Mouse mAb #8023, GLUT-1 Rabbit mAb #12939, HO-1 Rabbit mAb #5853, p21^Waf1/Cip1 Rabbit mAb #2947, PARP #9542) were diluted 1:1000, while the antibodies for the reference proteins (GAPDH Rabbit mAb #2118, β-actin Mouse mAb #3700, and vinculin Rabbit mAb #13901) were diluted 1:2000. The following day, the membranes were washed in TPBS and incubated with horseradish peroxidase (HRP)-conjugated secondary antibodies (Anti-rabbit IgG, HRP-linked Antibody #7074 or Anti-mouse IgG, HRP-linked Antibody #7076) for 1 h at room temperature. The membranes were then washed in TPBS and incubated with a SuperSignal™ West Pico Chemiluminescent Substrate (Thermo Fisher Scientific). Finally, the membranes were visualized using a ChemiDoc™ XRS + System (Bio-Rad). The experiments were carried out four to five times. The densitometric analysis was performed using ImageJ software (Wayne Rasband, National Institutes of Health, USA).
We, therefore, decided to test the effect of the tested compound on the level of the main glucose transporter, GLUT-1. […] The validity of the described conclusions was confirmed by the results that were obtained for doxorubicin. in which p53 activation occurred at both tested time points with a concomitant decrease in the GLUT-1 levels. […] The results that were obtained from the measurements of the expression of this protein were so interesting, and at the same time, inconclusive that we additionally decided to determine the effect of the tested derivative 13 on the expression of the genes encoding selected glucose transporters.

## O=[N+]([O-])c1ccc(/C=C/c2ccnc3ccccc23)o1 [Compound 13]
NHDF
  IC50: 649 ± 60 nM
Fas; HCT 116 p53+/+, 24-h
  Fas protein level vs control: more than three-fold increase
Fas; HCT 116 p53-/-, 48-h
  Fas protein expression vs untreated cells: four times higher
GLUT-1; HCT 116 p53+/+, 24-h incubation
  GLUT-1 protein level vs control: decrease
GLUT-1; HCT 116 p53+/+, 48-h
  GLUT-1 protein level vs control: rapid activation
GLUT-1; HCT 116 p53-/-
  GLUT-1 protein level vs control: decrease
GLUT-1; U-251
  GLUT-1 protein level vs untreated cells: not detectable
